According to article PMC7697888, “Comprehensive Set of Tertiary Complex Structures and Palmitic Acid Binding Provide Molecular Insights into Ligand Design for RXR Isoforms” (International Journal of Molecular Sciences, 2020):
Read-outs that look alike come from different tables or passages of the source.

Tests used:
RXRα LBD = molecular target: T1, RXRα LBD (Homo sapiens, UniProt P19793); experiment: HTRF-based SRC-1 co-activator recruitment assay; assay type: biochemical; settings: for EC50: HTRF; for competition with bexarotene in SRC-1 recruitment: titrated in the presence of 0.3 µM bexarotene
T1 construct: peptide to the RXRα LBD (aa 225–462) was studied
T1 sequence (P19793 225-462): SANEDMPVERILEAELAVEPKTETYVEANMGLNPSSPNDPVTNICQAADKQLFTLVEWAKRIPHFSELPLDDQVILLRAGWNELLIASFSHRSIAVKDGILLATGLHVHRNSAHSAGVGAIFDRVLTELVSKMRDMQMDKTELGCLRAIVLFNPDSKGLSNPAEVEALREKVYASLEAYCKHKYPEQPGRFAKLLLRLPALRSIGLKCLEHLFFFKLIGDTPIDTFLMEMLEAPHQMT
Text: To examine whether PA can act as a modulator that activates RXRs in solution, we next performed homogenous time-resolved fluorescence resonance energy transfer (HTRF)-based co-regulator recruitment assays using a peptide derived from steroid receptor co-activator 1 (SRC-1) as established previously. In addition to PA, we also tested the RXR modulator potentials of myristic acid (MA; C14:0; C14H28O2; […]) and stearic acid (SA; C18:0; C18H36O2; […]).
Terbium cryptate as streptavidin conjugate (Cisbio Bioassays, Codolet, France) was used as the fluorescence resonance energy transfer (FRET) donor and stably coupled via an N-terminal biotin to the SRC-1-derived peptide (biotin-[…]) (Eurogentec Deutschland GmbH, Cologne, Germany), which contains the co-activator consensus motif, LxxLL. Recombinant RXRα LBD fused to N-terminal superfolder green fluorescent protein (sGFP) served as the FRET acceptor. Coactivator recruitment by the RXRα LBD brings FRET donor and acceptor into close proximity, resulting in a gain in the FRET signal as indicator for binding. […] Fluorescence intensities (FI) at 520 nm (acceptor) and 620 nm (donor reference) after excitation at 340 nm were recorded on a Tecan Spark luminometer equipped with enhanced fluorescence module (Tecan) after 2 h of incubation at room temperature. To obtain dimensionless HTRF, FI520 nm was divided by FI620 nm and multiplied with 10,000. The recruitment of the SRC-1-derived peptide to the RXRα LBD was validated with increasing concentrations of SR11237.

RXRβ = molecular target: T2, RXRβ (Homo sapiens, UniProt P28702); experiment: Gal4 hybrid reporter gene assay RXRβ; assay type: cell-based; settings: HEK293T; at 100 µM concentrations and above
T2 construct: pFA-CMV-hRXRβ-LBD (NR2B2, UniProt entry: P28702-1, aa 294–533); expressed in transfected cells; host or cells: HEK293T
T2 sequence (P28702 294-533): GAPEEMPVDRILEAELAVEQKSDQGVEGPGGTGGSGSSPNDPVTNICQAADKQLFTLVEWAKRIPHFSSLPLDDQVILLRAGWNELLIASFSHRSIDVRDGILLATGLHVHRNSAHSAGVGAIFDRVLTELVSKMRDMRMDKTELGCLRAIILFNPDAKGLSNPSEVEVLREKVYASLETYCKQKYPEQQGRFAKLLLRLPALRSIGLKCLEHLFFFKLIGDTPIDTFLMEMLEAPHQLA
Description: (§1) The Gal4 hybrid reporter gene assays for RXRα, RXRβ and RXRγ were performed as described previously using the Gal4-fusion receptor plasmids pFA-CMV-hRXRα-LBD (NR2B1, UniProt entry: P19793, aa 225–462), pFA-CMV-hRXRβ-LBD (NR2B2, UniProt entry: P28702-1, aa 294–533) and pFA-CMV-hRXRγ-LBD (NR2B3, UniProt entry: P48443-1, aa 229–463), which code for the hinge region and LBD of the canonical RXR isoform. pFR-Luc (Stratagene, San Diego, CA, USA) as the reporter plasmid and pRL-SV40 (Promega, Madison, WI, USA) as the internal control were used. HEK293T cells were grown in DMEM high-glucose medium (supplemented with 10% fetal calf serum (FCS), sodium pyruvate (1 mM), penicillin (100 U/mL) and streptomycin (100 μg/mL)) at 37 °C and 5% CO2, and seeded in 96-well plates (3.0 × 10^4 cells/well) on the day before transfection. Right before transfection, medium was changed to Opti-MEM without supplements and cells were transiently transfected using the Lipofectamine LTX reagent (Invitrogen, Carlsbad, CA, USA) according to the manufacturer’s protocol with pFR-Luc (Stratagene), pRL-SV40 (Promega) and the respective pFA-CMV-hRXR-LBD clone. After 5 h of incubation, medium was changed to Opti-MEM (supplemented with penicillin (100 U/mL) and streptomycin (100 μg/mL)) additionally containing 0.1% DMSO and the respective test compounds or 0.1% DMSO alone as the untreated control. After overnight incubation (12–14 h), cells were assayed for luciferase activity using the Dual-Glo luciferase assay system (Promega) according to the manufacturer’s protocol on a Tecan Spark M10 luminometer (Tecan Deutschland GmbH, Crailsheim, Germany). Each sample was tested in at least three biologically independent repeats in duplicates. Data were normalized for transfection efficiency and cell growth by division of firefly luciferase data by Renilla luciferase data and multiplying by 1000 to obtain relative light units (RLUs). Fold activation denotes the mean RLU of test compounds at a respective concentration divided by the mean RLU of untreated control. […]

RXRγ = molecular target: T3, RXRγ (Homo sapiens, UniProt P48443); experiment: Gal4 hybrid reporter gene assay RXRγ; assay type: cell-based; settings: HEK293T; at 100 µM concentrations and above
T3 construct: pFA-CMV-hRXRγ-LBD (NR2B3, UniProt entry: P48443-1, aa 229–463); expressed in transfected cells; host or cells: HEK293T
T3 sequence (P48443 229-463): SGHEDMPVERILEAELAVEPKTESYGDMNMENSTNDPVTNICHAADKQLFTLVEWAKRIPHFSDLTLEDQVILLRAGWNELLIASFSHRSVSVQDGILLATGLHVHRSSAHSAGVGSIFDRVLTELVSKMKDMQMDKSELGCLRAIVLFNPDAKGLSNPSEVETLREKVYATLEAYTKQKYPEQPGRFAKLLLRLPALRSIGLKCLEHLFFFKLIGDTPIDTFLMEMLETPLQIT
Description: as §1

[1] = cell-free, compound alone, read-out: EC50 SRC-1 recruitment to RXRα
[2] = in the presence of 0.3 µM bexarotene, read-out: EC50 SRC-1 recruitment to RXRα in the presence of 0.3 µM bexarotene

| SMILES | EC50 (RXRα LBD; EC50 SRC-1 recruitment to RXRα in the presence of 0.3 µM bexarotene, in the presence of 0.3 µM bexarotene) | EC50 (RXRα LBD; [1]) | competition with bexarotene in SRC-1 recruitment (RXRα LBD) | RXRβ activation in Gal4 hybrid reporter gene assay (RXRβ) | RXRγ activation in Gal4 hybrid reporter gene assay (RXRγ) | EC50 (RXRα LBD; [2]) |
| --- | --- | --- | --- | --- | --- | --- |
| CCCCCCCCCCCCCC(=O)O [MA, myristic acid] | 2.9 µM | 3.2 µM | no competition | activated | activated |  |
| CCCCCCCCCCCCCCCCCC(=O)O [SA, stearic acid] |  | 19 µM | no competition | activated | activated | 14 µM |
| CCCCCCCCCCCCCCCC(=O)O [PA, palmitic acid] |  | 6.6 µM | no competition | activated | activated | 3.1 µM |
